According to ChEMBL document CHEMBL1201862, “PubChem BioAssay data set” (2004):
Activity calls are given as the source filed them.

How the values were obtained:
[1] = target: T1, Corticotropin-releasing factor receptor 2/Corticotropin-releasing factor-binding protein (Homo sapiens, UniProt P24387+Q13324); test: Dose Response confirmation of uHTS hits for small molecule antagonists of the CRF-binding protein and CRF-R2 receptor complex.; type: functional; details: read-out: IC50_Mean
T1 sequence (Q13324 whole entry): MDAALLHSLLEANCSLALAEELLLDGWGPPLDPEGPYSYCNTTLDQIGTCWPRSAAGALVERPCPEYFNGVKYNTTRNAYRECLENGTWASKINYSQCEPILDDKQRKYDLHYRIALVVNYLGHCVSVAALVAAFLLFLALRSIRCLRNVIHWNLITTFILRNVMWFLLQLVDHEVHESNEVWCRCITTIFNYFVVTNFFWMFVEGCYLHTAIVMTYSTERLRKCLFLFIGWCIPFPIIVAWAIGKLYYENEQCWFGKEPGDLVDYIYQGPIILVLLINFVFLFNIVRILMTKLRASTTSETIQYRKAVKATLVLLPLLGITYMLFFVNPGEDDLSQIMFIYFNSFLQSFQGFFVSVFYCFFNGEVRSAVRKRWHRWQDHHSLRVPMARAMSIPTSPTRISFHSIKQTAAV
T1 sequence (P24387 whole entry): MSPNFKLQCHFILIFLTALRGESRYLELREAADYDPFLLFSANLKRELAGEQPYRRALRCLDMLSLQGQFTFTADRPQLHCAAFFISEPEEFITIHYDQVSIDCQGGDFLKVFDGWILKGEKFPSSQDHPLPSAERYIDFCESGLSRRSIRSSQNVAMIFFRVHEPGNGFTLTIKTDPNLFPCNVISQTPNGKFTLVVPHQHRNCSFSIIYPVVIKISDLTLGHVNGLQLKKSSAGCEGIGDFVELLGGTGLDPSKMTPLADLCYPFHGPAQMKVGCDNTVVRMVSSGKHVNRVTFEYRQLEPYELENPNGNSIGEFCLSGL

[2] = target: T1, Corticotropin-releasing factor receptor 2/Corticotropin-releasing factor-binding protein; test: activators of CRF receptor 2 with binding protein – uHTS hits, confirmation (AID 602473); type: functional; details: read-out: EC50_Mean
[3] = target: T2, Short transient receptor potential channel 4 (Mus musculus, UniProt Q9QUQ5); test: mouse TRPC4 channel inhibitors, dose response, cell-based, HEK293 TRPC4/mu-opioid, Fluo-4 calcium (AID 434942); type: functional;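 note: potency of inhibitors blocking the TRPC4 calcium response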
T2 sequence (Q9QUQ5 whole entry): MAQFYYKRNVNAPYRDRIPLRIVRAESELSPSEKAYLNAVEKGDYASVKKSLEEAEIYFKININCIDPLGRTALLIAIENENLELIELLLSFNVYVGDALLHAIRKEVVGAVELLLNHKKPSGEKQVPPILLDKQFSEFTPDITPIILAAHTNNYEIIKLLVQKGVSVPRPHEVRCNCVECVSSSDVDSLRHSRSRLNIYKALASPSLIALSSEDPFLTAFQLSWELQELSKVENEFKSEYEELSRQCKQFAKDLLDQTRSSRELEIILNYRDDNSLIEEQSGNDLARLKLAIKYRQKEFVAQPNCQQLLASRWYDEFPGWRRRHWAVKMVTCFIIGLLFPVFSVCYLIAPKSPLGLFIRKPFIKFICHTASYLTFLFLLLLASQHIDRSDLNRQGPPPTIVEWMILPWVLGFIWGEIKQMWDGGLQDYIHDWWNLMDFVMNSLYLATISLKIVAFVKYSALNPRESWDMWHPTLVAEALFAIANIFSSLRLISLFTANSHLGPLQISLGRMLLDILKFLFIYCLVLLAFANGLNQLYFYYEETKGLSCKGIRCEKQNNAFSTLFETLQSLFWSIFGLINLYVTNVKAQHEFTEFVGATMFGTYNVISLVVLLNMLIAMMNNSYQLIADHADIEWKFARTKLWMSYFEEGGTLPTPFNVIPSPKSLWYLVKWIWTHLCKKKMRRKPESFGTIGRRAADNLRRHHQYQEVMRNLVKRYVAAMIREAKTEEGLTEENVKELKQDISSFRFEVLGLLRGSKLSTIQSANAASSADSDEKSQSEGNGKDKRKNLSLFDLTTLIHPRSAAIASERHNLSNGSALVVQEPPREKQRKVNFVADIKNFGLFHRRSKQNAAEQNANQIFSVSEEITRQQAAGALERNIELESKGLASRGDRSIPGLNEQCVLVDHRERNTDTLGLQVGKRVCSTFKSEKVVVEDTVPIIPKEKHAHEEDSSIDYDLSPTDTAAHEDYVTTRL

[4] = C. albicans growth with fluconazole, confirmation, fluorescence, retest (AID 2467); type: functional, cell-based
[5] = NIH-3T3 fibroblast cytotoxicity, dose response, cytotoxicity control, cell-based, fluorescence, Alamar Blue, secondary assay (AID 2327); type: functional;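 note: NIH-3T3 mouse fibroblasts cultured with fluconazole at 8 µg/mL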
[6] = growth suppression of beta-catenin-knockout colon cells, dose response, cell-based, HCT116, human colon tumor (AID 1045); type: functional;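 note: HCT116 colon tumor cells with beta catenin knocked out; cells exposed to compound for 60 hours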
[7] = growth suppression of PTEN-null colon cells, dose response, cell-based, HCT116 PTEN knockout (AID 1047); type: functional;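 note: HCT116 colon tumor cells with PTEN knocked out; cells exposed to compound for 60 hours before readout; potency for loss of cell viability measured by luminescence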
[8] = target: T3, Replicative DNA helicase DnaB (Mycobacterium tuberculosis, UniProt P9WMR3); test: DnaB intein splicing inhibitors, dose response, biochemical, cell-free fluorescence (AID 449749); type: functional
T3 sequence (P9WMR3 whole entry): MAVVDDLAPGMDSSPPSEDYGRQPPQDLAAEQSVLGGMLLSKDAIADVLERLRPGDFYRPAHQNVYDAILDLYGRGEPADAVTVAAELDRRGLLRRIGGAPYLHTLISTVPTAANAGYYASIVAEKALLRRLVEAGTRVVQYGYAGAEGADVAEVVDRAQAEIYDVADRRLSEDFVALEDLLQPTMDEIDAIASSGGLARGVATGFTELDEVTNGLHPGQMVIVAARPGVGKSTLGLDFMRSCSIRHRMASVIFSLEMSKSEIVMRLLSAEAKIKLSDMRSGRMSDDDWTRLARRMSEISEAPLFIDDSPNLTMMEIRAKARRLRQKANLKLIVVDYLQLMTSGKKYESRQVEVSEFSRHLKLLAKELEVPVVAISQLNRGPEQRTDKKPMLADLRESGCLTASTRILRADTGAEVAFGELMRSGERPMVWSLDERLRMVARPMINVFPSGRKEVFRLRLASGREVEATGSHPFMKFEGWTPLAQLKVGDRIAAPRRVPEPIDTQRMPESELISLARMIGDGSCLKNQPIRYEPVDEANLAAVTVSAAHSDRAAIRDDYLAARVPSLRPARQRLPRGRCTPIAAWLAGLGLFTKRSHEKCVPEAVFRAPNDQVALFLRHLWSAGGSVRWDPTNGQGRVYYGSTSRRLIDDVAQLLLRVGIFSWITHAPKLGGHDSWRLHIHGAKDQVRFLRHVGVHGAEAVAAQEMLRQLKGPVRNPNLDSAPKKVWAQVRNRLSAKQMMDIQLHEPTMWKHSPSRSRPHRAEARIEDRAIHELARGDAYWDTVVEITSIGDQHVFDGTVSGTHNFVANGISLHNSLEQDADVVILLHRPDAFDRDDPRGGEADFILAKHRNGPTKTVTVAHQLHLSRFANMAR

Protein RecA = target: T4, Protein RecA (Mycobacterium tuberculosis, UniProt P9WHJ3); test: Fluorescence Cell-Free Homogeneous Dose Retest to Identify Inhibitors of RecA-Intein Splicing Activity. [Related pubchem assays (depositor defined):AID2097, AID2223, AID489010, AID492950]; type: functional
T4 sequence (P9WHJ3 whole entry): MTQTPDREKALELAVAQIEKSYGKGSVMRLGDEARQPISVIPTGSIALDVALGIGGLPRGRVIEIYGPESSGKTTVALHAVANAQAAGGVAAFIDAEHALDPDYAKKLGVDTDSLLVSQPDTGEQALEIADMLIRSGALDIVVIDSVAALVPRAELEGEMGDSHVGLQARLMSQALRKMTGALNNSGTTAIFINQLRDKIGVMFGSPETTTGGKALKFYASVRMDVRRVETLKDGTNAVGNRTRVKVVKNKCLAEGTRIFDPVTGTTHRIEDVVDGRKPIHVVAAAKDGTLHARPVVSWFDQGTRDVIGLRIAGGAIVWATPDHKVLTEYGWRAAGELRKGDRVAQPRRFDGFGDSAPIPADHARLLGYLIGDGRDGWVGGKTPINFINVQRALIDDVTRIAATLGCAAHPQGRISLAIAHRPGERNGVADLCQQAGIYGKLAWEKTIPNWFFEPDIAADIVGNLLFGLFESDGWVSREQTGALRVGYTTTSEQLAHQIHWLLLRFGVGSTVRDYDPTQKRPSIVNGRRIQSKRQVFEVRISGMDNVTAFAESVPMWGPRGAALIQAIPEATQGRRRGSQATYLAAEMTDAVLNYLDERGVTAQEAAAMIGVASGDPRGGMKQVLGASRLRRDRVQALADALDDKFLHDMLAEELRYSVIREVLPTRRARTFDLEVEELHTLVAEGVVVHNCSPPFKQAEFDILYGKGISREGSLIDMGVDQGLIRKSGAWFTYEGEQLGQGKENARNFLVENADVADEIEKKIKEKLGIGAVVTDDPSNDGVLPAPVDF

Cytochrome P450 2C9 = Cytochrome P450 2C9 (Homo sapiens, UniProt P11712)
Chain of Cytochrome P450 2C9 (P11712 whole entry): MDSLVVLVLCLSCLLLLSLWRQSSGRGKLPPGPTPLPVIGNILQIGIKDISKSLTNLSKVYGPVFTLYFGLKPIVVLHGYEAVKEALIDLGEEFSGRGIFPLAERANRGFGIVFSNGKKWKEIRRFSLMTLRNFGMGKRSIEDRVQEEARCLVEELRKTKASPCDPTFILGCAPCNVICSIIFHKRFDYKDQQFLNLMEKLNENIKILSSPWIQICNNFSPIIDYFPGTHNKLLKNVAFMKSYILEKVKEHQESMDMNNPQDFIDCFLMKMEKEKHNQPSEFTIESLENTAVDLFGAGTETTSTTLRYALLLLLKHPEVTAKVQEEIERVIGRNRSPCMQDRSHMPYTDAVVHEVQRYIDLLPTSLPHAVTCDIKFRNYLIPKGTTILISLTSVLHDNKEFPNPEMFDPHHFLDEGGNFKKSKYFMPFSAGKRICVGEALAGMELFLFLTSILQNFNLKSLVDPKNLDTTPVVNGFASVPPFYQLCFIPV

Structure (SMILES) | IC50 [1] | EC50 [2] | EC50 [3] | further results
CCN(CC)C(=O)/C(=C/c1cn(S(=O)(=O)N(C)C)c2ccccc12)NC(=O)c1ccc(OC)cc1 | > 47.1 µM (inactive) | > 53 µM (inactive) |  | 
COc1ccc(C2NC(C(=O)O)Cc3c2[nH]c2ccccc32)cc1CN1CCN(c2ccc(F)cc2)CC1 (configuration not stated) |  |  | 0.531 µM (active) | 
CC12CCC(C(=O)NNc3ccc([N+](=O)[O-])cc3)(CC1=O)C2(C)C (configuration not stated) |  |  |  | EC50 [4]: > 38 µM (not active); EC50 [5]: > 150 µM (inconclusive)
CCOC(=O)C1CCN(C2CCN(C(=O)c3oc4c(C)c(C)ccc4c3C)CC2)CC1 |  |  | 4.22 µM (active) | 
Clc1ccc(-n2nnnc2-c2cnc(-c3ccncc3)nc2-c2cccs2)cc1 |  |  |  | EC50 [6]: 21.1 µM (active); EC50 [7]: 16.9 µM (active)
C=CCSc1nc(-c2ccc(OCCC)cc2)n[nH]1 |  |  |  | EC50 [4]: > 38 µM (not active); EC50 [5]: > 150 µM (inactive)
CCOc1cc(-c2nc(-c3cc(OC)c(OC)c(OC)c3)no2)cc(OCC)c1OCC |  |  |  | EC50 [4]: > 38 µM (not active); EC50 [5]: > 160 µM (inactive)
CCOC(=O)c1oc2ccccc2c1CN1CCCCC1 |  |  | 4.22 µM (active) | 
Cc1ccc(C(=O)C=Cc2cccc(C)c2)cc1 | > 47.1 µM (inactive) | > 53 µM (inactive) |  | 
COc1ccc(C(CNc2ccc(C(F)(F)F)cn2)N(C)C)cc1OC (configuration not stated) |  |  | 0.299 µM (active) | 
COc1cccc(C(=O)C2CCCN(Cc3cccn3-c3ccccn3)C2)c1 (configuration not stated) |  |  | 6.68 µM (active) | 
CC(=O)NC1=NN(C(C)=O)C(C)(c2ccccn2)S1 (configuration not stated) | > 47.1 µM (inactive) | > 53 µM (inactive) |  | 
Cc1nn(C)c(C)c1NC(=O)CSc1nc(C2CC2)nc2c1cnn2-c1ccccc1 |  |  |  | EC50 [6]: 10.8 µM (active); EC50 [7]: 5.78 µM (active)
Cc1sc2nc(CN(Cc3cccs3)C(=O)NC3CCCCC3)[nH]c(=O)c2c1C | 16.4 µM (active) | > 53 µM (inactive) |  | 
COc1ccc(C(=O)ON=C(N)Cc2ccc(Cl)cc2)cc1OC |  |  |  | EC50 [6]: 19.1 µM (active); EC50 [7]: 21.6 µM (active)
Cc1ccccc1N=C1N=C(S)N(c2ccccc2)C12CCCCC2 | > 47.1 µM (inactive) | > 53 µM (inactive) |  | 

Structure (SMILES) | IC50 [1] | EC50 [2] | EC50 [3] | further results
Cc1noc(NS(=O)(=O)c2ccc(NC(=O)CS(=O)(=O)c3ccccc3)cc2)c1C | > 47.1 µM (inactive) | > 53 µM (inactive) |  | 
COc1ccc(CCN=C(N)S)cc1OC | > 47.1 µM (inactive) | > 53 µM (inactive) |  | 
O=C(O)CC(SCC(=O)Nc1ccc(Br)cc1)C(=O)O (configuration not stated) | > 47.1 µM (inactive) | > 53 µM (inactive) |  | 
CN(C)C(=O)c1ccc2c(c1[N+](=O)[O-])C(=O)c1ccccc1C2=O |  |  |  | AC50 [8]: 57.9 µM (active); EC50 [6]: 105 µM (active); EC50 (Protein RecA): 0.558 µM (active); EC50 [7]: 87 µM (active)
CN(Cc1cnn(C)c1)C(=O)c1ccc(OC2CCN(CCc3ccccc3)CC2)cc1 |  |  | 1.5 µM (active) | 
CCn1c(S)nnc1CCNC(=O)c1ccccc1Cl | > 47.1 µM (inactive) | > 53 µM (inactive) |  | AC50 (Cytochrome P450 2C9): 1.58 µM (inconclusive)
Cc1ccc(C[n+]2cc(-c3ccc(Cl)cc3)n3c2CCC3)cc1 |  |  | 2.37 µM (active) | 
COc1ccc(CCNC(=O)c2cccc3c2C(=O)N(C2CCCCC2)C3)cc1OC | 5.54 µM (active) | > 53 µM (inactive) |  | 
COc1ccc2c(c1)c(C(=O)O)c(C)n2-c1ccc(Cl)cc1 | > 47.1 µM (inactive) | > 53 µM (inactive) |  | 
CCCSC(=N)N/N=C/c1ccccc1O |  |  |  | EC50 [6]: 32.4 µM (active); EC50 [7]: 34.7 µM (active)
CC1CCC(NC(=O)c2ccc(/C=C3\Oc4ccccc4N(C)C3=O)cc2)CC1 (configuration not stated) |  |  |  | EC50 [6]: 26.7 µM (active); EC50 [7]: 28 µM (active)
COc1ccc(NS(=O)(=O)c2ccc(N3CCOCC3)c(NC(=O)C(C)C)c2)cc1 | > 47.1 µM (inactive) | > 53 µM (inactive) |  | 
CCCOc1ccc(Br)cc1/C=N/O |  |  | 1.68 µM (active) | 
CC(C)c1noc2ncc(C(=O)c3cc(Cl)cc(Cl)c3O)cc12 |  |  |  | EC50 [4]: 3.63 µM (active); EC50 [5]: > 160 µM (inactive)
Cc1cc(-c2sccc2C)nc(-n2cccc2)n1 |  |  | 7.5 µM (active) | 
Cc1ccc(Cn2c(=N)n(CC(O)c3ccco3)c3ccccc32)cc1 (configuration not stated) |  |  | 1.88 µM (active) | 
